Patent US8299056B2 (Signal Pharmaceuticals, LLC, priority 2008, dated 2012)
Like-named read-outs stand apart in the source and are kept apart here.

Target: T1, Syk (Homo sapiens, UniProt P43405)
T1 construct: purchased Carna Biosciences
Assay: Syk HTRF assay
Format: biochemical
In short: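 Read-out is the 665 nm/615 nm time-resolved fluorescence ratio after EDTA stop and Eu-anti-phosphotyrosine plus streptavidin-DyLight 647 detection. Reaction ran 1 h at room temperature with start mix of 87.5 μM ATP and 80 nM substrate peptide in pH 7.6 HEPES/MgCl2 buffer.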

[1] = IC50 activity level, read-out: Activity Level
[2] = activity levels A-D, read-out: Activity Level (IC50 in the Syk HTRF assay)
[3] = read-out: Activity Level (Syk HTRF assay IC50)

IC50 [1] [nM]	IC50 [2] [nM]	further results	Structure (SMILES)
0.005 to 250	–	–	OCCNc1cc(-c2cccc3nc(Nc4ccccc4)nn23)ccn1 [Example 443, 2-(4-(2-(phenylamino)-[1,2,4]triazolo[1,5-a]pyridin-5-yl)pyridin-2-ylamino)ethanol]
–	1000 to 10000	–	CNC(=O)c1ccc(Nc2nc3cccc(O[C@H]4CC[C@@H](N)CC4)n3n2)cc1 [Example 283, cis-4-(5-(4-aminocyclohexyloxy)-[1,2,4]triazolo[1,5-a]pyridin-2-ylamino)-N-methylbenzamide]
1000 to 10000	–	–	NC(=O)c1ccc(Nc2nc3cccc(NC4CCNCC4)n3n2)cc1 [Example 516, 4-(5-(piperidin-4-ylamino)-[1,2,4]triazolo[1,5-a]pyridin-2-ylamino)benzamide]
–	1000 to 10000	–	CC(C)(O)c1ccc(Nc2nc3cccc(N[C@H]4CC[C@@H](O)CC4)n3n2)cn1 [Example 359, cis-4-(2-(6-(2-hydroxypropan-2-yl)pyridin-3-ylamino)-[1,2,4]triazolo[1,5-a]pyridin-5-ylamino)cyclohexanol]
–	500 to 1000	–	Cc1cc(Nc2nc3cccc(N[C@H]4CC[C@@H](O)CC4)n3n2)ccn1 [Example 367, cis-4-(2-(2-methylpyridin-4-ylamino)-[1,2,4]triazolo[1,5-a]pyridin-5-ylamino)cyclohexanol]
–	250 to 500	–	NC(=O)c1cccc(Nc2nc3cccc(N[C@H]4CC[C@@H](O)CC4)n3n2)c1 [Example 337, cis-3-(5-(4-hydroxycyclohexylamino)-[1,2,4]triazolo[1,5-a]pyridin-2-ylamino)benzamide]
–	0.005 to 250	–	CNC(=O)c1ccc(Nc2nc3cccc(Cc4cccc(O)c4)n3n2)cc1 [Example 292, 4-(5-(3-hydroxybenzyl)-[1,2,4]triazolo[1,5-a]pyridin-2-ylamino)-N-methylbenzamide]
–	0.005 to 250	–	OC1CCN(c2ccc(Nc3nc4cccc(N[C@H]5CC[C@@H](O)CC5)n4n3)cn2)CC1 [Example 294, cis-1-(5-(5-(4-hydroxycyclohexylamino)-[1,2,4]triazolo[1,5-a]pyridin-2-ylamino)pyridin-2-yl)piperidin-4-ol]
–	1000 to 10000	–	OC1CCN(Cc2cccc3nc(Nc4ccc(C(F)(F)F)cc4)nn23)CC1 [Example 396, 1-((2-(4-(trifluoromethyl)phenylamino)-[1,2,4]triazolo[1,5-a]pyridin-5-yl)methyl)piperidin-4-ol]
0.005 to 250	–	–	CC(O)c1nc2ccc(-c3cccc4nc(Nc5ccc(C(F)(F)F)cc5)nn34)cc2[nH]1 (stereo not drawn) [Example 402, 1-(6-(2-(4-(trifluoromethyl)phenylamino)-[1,2,4]triazolo[1,5-a]pyridin-5-yl)-1H-benzo[d]imidazol-2-yl)ethanol]
–	–	IC50 [3]: 0.005 to 250 nM	Nc1ccc2cc(Nc3nc4cccc(-c5ccccc5)n4n3)ccc2n1 [compound 17]
250 to 500	–	–	O=C1NCc2cc(-c3cccc4nc(Nc5ccccc5)nn34)ccc21 [Example 496, 5-(2-(phenylamino)-[1,2,4]triazolo[1,5-a]pyridin-5-yl)isoindolin-1-one]
–	500 to 1000	–	O[C@@H]1CCC[C@H]1Nc1cc(-c2cccc3nc(Nc4ccc(C(F)(F)F)cc4)nn23)ccn1 [Example 246, (1R,2R)-2-(4-(2-(4-(trifluoromethyl)phenylamino)-[1,2,4]triazolo[1,5-a]pyridin-5-yl)pyridin-2-ylamino)cyclopentanol]
–	–	IC50 [3]: 0.005 to 250 nM	CNC(=O)c1ccc(Nc2nc3cccc(-c4cccc(CCCN)c4)n3n2)cc1 [compound 8, 4-(5-(3-(3-aminopropyl)phenyl)-[1,2,4]triazolo[1,5-a]pyridin-2-ylamino)-N-methylbenzamide]
–	–	IC50 [3]: 0.005 to 250 nM	c1ccc(-c2cccc3nc(Nc4ccc(N5CCOCC5)nc4)nn23)cc1 [compound 41, N-(6-morpholinopyridin-3-yl)-5-phenyl-[1,2,4]triazolo[1,5-a]pyridin-2-amine]
1000 to 10000	–	–	Oc1cc(-c2cccc3nc(Nc4ccccc4)nn23)ccn1 [Example 517, 4-(2-(phenylamino)-[1,2,4]triazolo[1,5-a]pyridin-5-yl)pyridin-2-ol]
250 to 500	–	–	c1cc(N[C@@H]2CCCNC2)n2nc(Nc3ccc4nn[nH]c4c3)nc2c1 [Example 455, (R)-N^2-(1H-benzo[d][1,2,3]triazol-6-yl)-N^5-(piperidin-3-yl)-[1,2,4]triazolo[1,5-a]pyridine-2,5-diamine]
–	–	IC50 [3]: 0.005 to 250 nM	Nc1n[nH]c2cc(Nc3nc4cccc(-c5ccccc5)n4n3)ccc12 [compound 57]
–	1000 to 10000	–	N#Cc1ccc(Nc2nc3cccc(N[C@H]4CC[C@@H](O)CC4)n3n2)c(F)c1 [Example 341, cis-3-fluoro-4-(5-(4-hydroxycyclohexylamino)-[1,2,4]triazolo[1,5-a]pyridin-2-ylamino)benzonitrile]
–	1000 to 10000	–	O[C@H]1CCC[C@H]1Nc1cccc2nc(Nc3ccc(C(F)(F)F)cc3)nn12 (stereo in doubt) [Example 376, (1S,2R)-2-(2-(4-(trifluoromethyl)phenylamino)-[1,2,4]triazolo[1,5-a]pyridin-5-ylamino)cyclopentanol]

IC50 [1] [nM]	IC50 [2] [nM]	further results	Structure (SMILES)
–	500 to 1000	–	C[C@]1(O)CC[C@H](Nc2cccc3nc(Nc4ccc(C(F)(F)F)cc4)nn23)CC1 [Example 383, trans-1-methyl-4-(2-(4-(trifluoromethyl)phenylamino)-[1,2,4]triazolo[1,5-a]pyridin-5-ylamino)cyclohexanol]
–	–	IC50 [3]: 1000 to 10000 nM	CN1C(=O)Cc2ccc(Nc3nc4cccc(CC5CCOCC5)n4n3)cc21 [compound 118, 1-methyl-6-(5-((tetrahydro-2H-pyran-4-yl)methyl)-[1,2,4]triazolo[1,5-a]pyridin-2-ylamino)indolin-2-one]
–	–	IC50 [3]: 1000 to 10000 nM	O[C@H]1CC[C@@H](Nc2cccc3nc(Nc4ccn5ccnc5c4)nn23)CC1 [compound 112, cis-4-(2-(imidazo[1,2-a]pyridin-7-ylamino)-[1,2,4]triazolo[1,5-a]pyridin-5-ylamino)cyclohexanol]
–	0.005 to 250	–	O=C1Cc2ccc(Nc3nc4cccc(N[C@H]5CC[C@@H](O)CC5)n4n3)cc2N1 [Example 238, cis-6-(5-(4-hydroxycyclohexylamino)-[1,2,4]triazolo[1,5-a]pyridin-2-ylamino)indolin-2-one]
0.005 to 250	–	–	O[C@H]1CC[C@@H](Nc2cccc3nc(Nc4ccc(C(F)(F)F)cc4)nn23)C1 (stereo in doubt) [Example 418, (1S,3R)-3-(2-(4-(trifluoromethyl)phenylamino)-[1,2,4]triazolo[1,5-a]pyridin-5-ylamino)cyclopentanol]
–	0.005 to 250	–	CNC(=O)c1ccc(Nc2nc3cccc(CC4CCNCC4)n3n2)cc1 [Example 276]
250 to 500	–	–	c1ccc(Nc2nc3cccc(Nc4ccccc4)n3n2)cc1 [Example 529, N^2,N^5-diphenyl-[1,2,4]triazolo[1,5-a]pyridine-2,5-diamine]
–	1000 to 10000	–	COc1cccc(Nc2nc3cccc(N[C@H]4CC[C@@H](O)CC4)n3n2)n1 [Example 342, cis-4-(2-(6-methoxypyridin-2-ylamino)-[1,2,4]triazolo[1,5-a]pyridin-5-ylamino)cyclohexanol]
0.005 to 250	–	–	Cc1n[nH]c2cc(Nc3nc4cccc(C(F)(F)C5COCCO5)n4n3)ccc12 (stereo not drawn) [Example 563, 5-((1,4-dioxan-2-yl)difluoromethyl)-N-(3-methyl-1H-indazol-6-yl)-[1,2,4]triazolo[1,5-a]pyridin-2-amine]
–	–	IC50 [3]: 0.005 to 250 nM	COCc1nc2ccc(Nc3nc4cccc(CC5CCOCC5)n4n3)cc2[nH]1 [compound 132, N-(2-(methoxymethyl)-1H-benzo[d]imidazol-6-yl)-5-((tetrahydro-2H-pyran-4-yl)methyl)-[1,2,4]triazolo[1,5-a]pyridin-2-amine]
–	–	IC50 [3]: 0.005 to 250 nM	CC1(C)C(=O)Nc2cc(Nc3nc4cccc(C[C@H]5CC[C@](C)(O)CC5)n4n3)ccc21 [Example 140, cis-6-(5-((4-hydroxy-4-methylcyclohexyl)methyl)-[1,2,4]triazolo[1,5-a]pyridin-2-ylamino)-3,3-dimethylindolin-2-one]
250 to 500	–	–	OC(c1cccnc1)c1cccc2nc(Nc3ccccc3)nn12 (stereo not drawn) [Example 501, (2-(phenylamino)-[1,2,4]triazolo[1,5-a]pyridin-5-yl)(pyridin-3-yl)methanol]
–	500 to 1000	–	O=C1NCc2ccc(Nc3nc4cccc(N[C@H]5CC[C@@H](O)CC5)n4n3)cc21 [Example 260, cis-6-(5-(4-hydroxycyclohexylamino)-[1,2,4]triazolo[1,5-a]pyridin-2-ylamino)isoindolin-2-one]
–	–	IC50 [3]: 0.005 to 250 nM	CN1C(=O)C(C)(C)c2ccc(Nc3nc4cccc(CC5CCOCC5)n4n3)cc21 [Example 143, 1,3,3-trimethyl-6-(5-((tetrahydro-2H-pyran-4-yl)methyl)-[1,2,4]triazolo[1,5-a]pyridin-2-ylamino)indolin-2-one]
–	1000 to 10000	–	CC(C)C1CNC(=O)CN1Cc1cccc2nc(Nc3ccc(C(F)(F)F)cc3)nn12 (racemic) [Example 230, (±)-5-isopropyl-4-((2-(4-(trifluoromethyl)phenylamino)-[1,2,4]triazolo[1,5-a]pyridin-5-yl)methyl)piperazin-2-one]
1000 to 10000	–	–	NC(=O)c1ccc(Nc2nc3cccc(NC4CCCNC4)n3n2)cc1 (stereo in doubt) [Example 476, (R)-4-(5-(piperidin-3-ylamino)-[1,2,4]triazolo[1,5-a]pyridin-2-ylamino)benzamide]
0.005 to 250	–	–	CC(C)Nc1cccc2nc(Nc3ccc4c(c3)NC(=O)C4(C)C)nn12 [Example 549, 6-(5-(isopropylamino)-[1,2,4]triazolo[1,5-a]pyridin-2-ylamino)-3,3-dimethylindolin-2-one]
–	0.005 to 250	–	CC1C(=O)NCCN1Cc1cccc2nc(Nc3ccc(C(F)(F)F)cc3)nn12 (stereo in doubt) [Example 275, (S)-3-methyl-4-((2-(4-(trifluoromethyl)phenylamino)-[1,2,4]triazolo[1,5-a]pyridin-5-yl)methyl)piperazin-2-one]
–	–	IC50 [3]: 0.005 to 250 nM	Cn1ncc2ccc(Nc3nc4cccc(-c5ccccc5)n4n3)cc21 [compound 54, N-(1-methyl-1H-indazol-6-yl)-5-phenyl-[1,2,4]triazolo[1,5-a]pyridin-2-amine]
